In patent US20250154152A1, “INHIBITORS OF NAEGLERIA FOWLERI” (Wisconsin Alumni Research Foundation, priority 2023, published 2025) one finds EC50 data, which are given here for 25 molecules.

The assay deals with N. fowleri strain Nf69 (ATCC 30215) trophozoites. In words: Determination of EC50 values against Naegleria fowleri (growth inhibition, CellTiter Glo, 48 h). It is filed as cell-based. The conditions noted are these: ATCC30215, N. fowleri Nf69 trophozoites, 48 h culture, 37° C., CellTiter Glo luminescence, read-out: EC50 uM against N. fowleri. The essentials:
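Axenic Nf69 trophozoites in Nelson's complete medium with 10% FBS exposed to compound, initially 20–0.375 μM, for 48 h at 37 °C, 5% CO2. Viability read by CellTiter-Glo luminescence; % growth inhibition versus controls, triplicate averages fitted for EC50, with lower ranges used for very potent compounds.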
For orientation: In ATP-based viability assays light output follows the ATP content of the culture.

The EC50 is the concentration at which the effect is half-maximal.

Regarding `O=c1c2cc(Cl)c(Cl)cc2nc2n1CC[C@@H]1[C@@H]2CCCN1Cc1ccc(C(F)(F)F)cc1` (racemic) [Compound 7u, (±)-(4aR,13bS)-10,11-dichloro-4-(4-(trifluoromethyl)benzyl)-1,2,3,4,4a,5,6,13b-octahydro-8H-[1,6]naphthyridino[5,6-b]quinazolin-8-one], the EC50 was above 10 µM.

Regarding `COc1cc2nc3n(c(=O)c2cc1C#N)CC[C@@H]1[C@@H]3CCCN1CC1COC1` (racemic) [trans-7kk, (±)-(4aR,13bS)-11-methoxy-4-(oxetan-3-ylmethyl)-8-oxo-2,3,4,4a,5,6,8,13b-octahydro-1H-[1,6]naphthyridino[5,6-b]quinazoline-10-carbonitrile], the EC50 is 0.1 to 1 µM.

Consider `COc1cc2nc3n(c(=O)c2cc1Cl)CC[C@@H]1[C@@H]3CCCN1Cc1cccnc1` (racemic) [trans-7ii, (±)-(4aR,13bS)-10-chloro-11-methoxy-4-(pyridin-3-ylmethyl)-1,2,3,4,4a,5,6,13b-octahydro-8H-[1,6]naphthyridino[5,6-b]quinazolin-8-one], for which the concentration giving a half-maximal response (EC50) is 0.1 to 1 µM.

For `O=C(C1CCOCC1)N1CCC[C@@H]2c3nc4cc(Cl)c(Cl)cc4c(=O)n3CC[C@H]21` (racemic) [trans-7e, (±)-(4aR,13bS)-10,11-dichloro-4-(tetrahydro-2H-pyran-4-carbonyl)-1,2,3,4,4a,5,6,13b-octahydro-8H-[1,6]naphthyridino[5,6-b]quinazolin-8-one], the EC50 was above 10 µM.

For the molecule `COc1cc2nc3n(c(=O)c2cc1Cl)CC[C@@H]1[C@@H]3CCCN1CC(C)C` (racemic) [trans-7ee, (±)-(4aR,13bS)-10-chloro-4-isobutyl-11-methoxy-1,2,3,4,4a,5,6,13b-octahydro-8H-[1,6]naphthyridino[5,6-b]quinazolin-8-one], the EC50 is 0.1 to 1 µM.

Take `CC(C)N1CCC[C@@H]2c3nc4cc(Cl)c(Cl)cc4c(=O)n3CC[C@H]21` (racemic) [trans-7a, (±)-(4aR,13bS)-10,11-dichloro-4-isopropyl-1,2,3,4,4a,5,6,13b-octahydro-8H-[1,6]naphthyridino[5,6-b]quinazolin-8-one]: the EC50 was in the range of 0.0001 to 0.1 µM.

Turning to `CCN1CCC[C@H]2c3nc4ccccc4c(=O)n3CC[C@H]21` (racemic) [cis-5z, (±)-(4aR,13bR)-4-ethyl-1,2,3,4,4a,5,6,13b-octahydro-8H-[1,6]naphthyridino[5,6-b]quinazolin-8-one], the EC50 was above 10 µM.

As to `COc1cc2nc3n(c(=O)c2cc1Cl)CC[C@@H]1[C@@H]3CCCN1CCN1CCOCC1` (racemic) [trans-7mm, (±)-(4aR,13bS)-10-chloro-11-methoxy-4-(2-morpholinoethyl)-1,2,3,4,4a,5,6,13b-octahydro-8H-[1,6]naphthyridino[5,6-b]quinazolin-8-one], the EC50 lay within 0.1 to 1 µM.

With `COc1cc(CN2CCC[C@@H]3c4nc5cc(Cl)c(Cl)cc5c(=O)n4CC[C@H]32)cc(OC)c1` (racemic) [trans-7n, (±)-(4aR,13bS)-10,11-dichloro-4-(3,5-dimethoxybenzyl)-1,2,3,4,4a,5,6,13b-octahydro-8H-[1,6]naphthyridino[5,6-b]quinazolin-8-one], the EC50 lay within 0.0001 to 0.1 µM.

As to `CN1CC[C@H]2c3nc4ccccc4c(=O)n3CC[C@H]21` (racemic) [cis-5cc, (±)-(3aR,12bR)-3-methyl-2,3,3a,4,5,12b-hexahydropyrrolo[3′,2′:3,4]pyrido[2,1-b]quinazolin-7(1H)-one], the EC50 was above 10 µM.

As for `COc1cc2nc3n(c(=O)c2cc1Cl)CC[C@@H]1[C@@H]3CCCN1C` (racemic) [trans-5gg, (±)-(4aR,13bS)-10-chloro-11-methoxy-4-methyl-1,2,3,4,4a,5,6,13b-octahydro-8H-[1,6]naphthyridino[5,6-b]quinazolin-8-one], the EC50 fell in the range of 0.1 to 1 µM.

On to `CN1CCO[C@H]2c3nc4ccccc4c(=O)n3CC[C@H]21` (racemic) [cis-5v, (±)-(4aR,13bR)-4-methyl-3,4,4a,5,6,13b-hexahydro-[1,4]oxazino[2′,3′:3,4]pyrido[2,1-b]quinazolin-8(2H)-one], for which the EC50 was above 10 µM.

On to `COc1cc2nc3n(c(=O)c2cc1Cl)CC[C@@H]1[C@@H]3CCCN1CCOC(C)C` (racemic) [trans-7ff, (±)-(4aR,13bS)-10-chloro-4-(2-isopropoxyethyl)-11-methoxy-1,2,3,4,4a,5,6,13b-octahydro-8H-[1,6]naphthyridino[5,6-b]quinazolin-8-one], for which the EC50 lay within 0.1 to 1 µM.

On to `O=c1c2cc(Cl)c(Cl)cc2nc2n1CC[C@@H]1[C@@H]2CCCN1CC1COC1` (racemic) [trans-7m, (±)-(4aR,13bS)-10,11-dichloro-4-(oxetan-3-ylmethyl)-1,2,3,4,4a,5,6,13b-octahydro-8H-[1,6]naphthyridino[5,6-b]quinazolin-8-one], for which the EC50 lay within 0.0001 to 0.1 µM.

For `Cc1cccc2nc3n(c(=O)c12)CC[C@@H]1[C@@H]3CCCN1C` (racemic) [trans-5b, (±)-(4aR,13bS)-4,9-dimethyl-1,2,3,4,4a,5,6,13b-octahydro-8H-[1,6]naphthyridino[5,6-b]quinazolin-8-one], the EC50 is above 10 µM.

Take `CN(C)C(=O)CN1CCC[C@@H]2c3nc4cc(Cl)c(Cl)cc4c(=O)n3CC[C@H]21` (racemic) [trans-7c, (±)-2-((4aR,13bS)-10,11-dichloro-8-oxo-2,3,5,6,8,13b-hexahydro-1H-[1,6]naphthyridino[5,6-b]quinazolin-4(4aH)-yl)-N,N-dimethylacetamide]: the EC50 fell in the range of 0.1 to 1 µM.

`Cn1c([C@@H]2CCCN(Cc3cnccn3)C2)nc2cc(Cl)c(Cl)cc2c1=O` [Compound R-14x, (R)-6,7-dichloro-3-methyl-2-(1-(pyrazin-2-ylmethyl)piperidin-3-yl)quinazolin-4(3H)-one]: the EC50 is above 10 µM.

With `CN1CCC[C@@H]2c3nc4ccc(F)cc4c(=O)n3CC[C@H]21` (racemic) [trans-5f, (±)-(4aR,13bS)-10-fluoro-4-methyl-1,2,3,4,4a,5,6,13b-octahydro-8H-[1,6]naphthyridino[5,6-b]quinazolin-8-one], the EC50 was above 10 µM.

In the case of `COc1cc(Cl)cc2c(=O)n3c(nc12)[C@H]1CCCN(C)[C@@H]1CC3` (racemic) [trans-5t, (±)-(4aR,13bS)-10-chloro-12-methoxy-4-methyl-1,2,3,4,4a,5,6,13b-octahydro-8H-[1,6]naphthyridino[5,6-b]quinazolin-8-one], the EC50 was above 10 µM.

Regarding `Cn1c([C@H]2CCCN(CCO)C2)nc2cc(Cl)c(Cl)cc2c1=O` [Compound S-14y, (S)-6,7-dichloro-2-(1-(2-hydroxyethyl)piperidin-3-yl)-3-methylquinazolin-4(3H)-one], the EC50 was above 10 µM.

`CC(C)CN1CCC[C@@H](c2nc3cc(Cl)c(Cl)cc3c(=O)n2C)C1` [Compound R-14g, (R)-6,7-dichloro-2-(1-isobutylpiperidin-3-yl)-3-methylquinazolin-4(3H)-one]: the EC50 was above 10 µM.

Regarding `O=c1c2cc(Cl)c(Cl)cc2nc2n1CC[C@H]1NCCC[C@H]21` (racemic) [trans-6b, (±)-(4aR,13bS)-10,11-dichloro-1,2,3,4,4a,5,6,13b-octahydro-8H-[1,6]naphthyridino[5,6-b]quinazolin-8-one], the EC50 was 1 to 10 µM.

Consider `Cn1c([C@@H]2CCCN(CC3COC3)C2)nc2cc(F)ccc2c1=O` [Compound R-14r, (R)-7-fluoro-3-methyl-2-(1-(oxetan-3-ylmethyl)piperidin-3-yl)quinazolin-4(3H)-one], for which the EC50 was above 10 µM.

Consider `COc1ccc2c(=O)n3c(nc2c1)[C@@H]1CCCN(C)[C@@H]1CC3` (racemic) [cis-50, (±)-(4aR,13bR)-11-methoxy-4-methyl-1,2,3,4,4a,5,6,13b-octahydro-8H-[1,6]naphthyridino[5,6-b]quinazolin-8-one], for which the EC50 lay in the range of 1 to 10 µM.

As for `Cn1c([C@@H]2CCCN(CC(C)(C)O)C2)nc2cc(Cl)c(Cl)cc2c1=O` [Compound R-14h, (R)-6,7-dichloro-2-(1-(2-hydroxy-2-methylpropyl)piperidin-3-yl)-3-methylquinazolin-4(3H)-one], the EC50 was above 10 µM.
